In the NIST ThermoML archive (doi:10.1021/je700321s):
± gives the expanded uncertainty stated by the source.

Experiment: xn = mol fraction of the nth substance listed
Settings: Liquid, Vibrating tube method

CC(C)O [propan-2-ol] + O=C=O
Settings | mass density [kg/m3]
323.05 K, 7910 kPa, x2 = 0.6086 | 781.7 ± 1.5
323.05 K, 8002 kPa, x2 = 0.139 | 777.6 ± 0.8
323.05 K, 8009 kPa, x2 = 0.6086 | 782.2 ± 1.6
323.05 K, 8208 kPa, x2 = 0.6086 | 783.1 ± 0.8
323.05 K, 8404 kPa, x2 = 0.6086 | 784.1 ± 0.8
323.05 K, 8527 kPa, x2 = 0.139 | 778.3 ± 0.8
323.05 K, 8528 kPa, x2 = 0.9715 | 303.9 ± 1.8
323.05 K, 8607 kPa, x2 = 0.6086 | 785 ± 0.8
323.05 K, 8800 kPa, x2 = 0.6086 | 785.8 ± 0.8
323.05 K, 9004 kPa, x2 = 0.6086 | 786.7 ± 0.8
323.05 K, 9031 kPa, x2 = 0.9715 | 381.9 ± 2.7
323.05 K, 9033 kPa, x2 = 0.139 | 778.8 ± 0.8
323.05 K, 9107 kPa, x2 = 0.9492 | 526.2 ± 2.6
323.05 K, 9301 kPa, x2 = 0.6086 | 788 ± 0.8
323.05 K, 9400 kPa, x2 = 0.9492 | 575.3 ± 2.3
323.05 K, 9501 kPa, x2 = 0.6086 | 788.9 ± 0.8
323.05 K, 9519 kPa, x2 = 0.139 | 779.4 ± 0.8
323.05 K, 9535 kPa, x2 = 0.9715 | 467.3 ± 2.8
323.05 K, 9702 kPa, x2 = 0.6086 | 789.8 ± 0.8
323.05 K, 9710 kPa, x2 = 0.9492 | 607 ± 1.1
323.05 K, 9805 kPa, x2 = 0.6086 | 790.2 ± 0.8
323.05 K, 10015 kPa, x2 = 0.9492 | 628.2 ± 1.7
323.05 K, 10046 kPa, x2 = 0.9715 | 540 ± 2.1
323.05 K, 10301 kPa, x2 = 0.9492 | 644.3 ± 0.9
323.05 K, 10501 kPa, x2 = 0.9715 | 577.6 ± 1.6
323.05 K, 10600 kPa, x2 = 0.9492 | 658.2 ± 1.4
323.05 K, 10904 kPa, x2 = 0.9492 | 670.3 ± 1.3
323.05 K, 11011 kPa, x2 = 0.9715 | 612.9 ± 1.5
323.05 K, 11211 kPa, x2 = 0.9492 | 681.1 ± 1.3
323.05 K, 11508 kPa, x2 = 0.9492 | 689.9 ± 1.3
323.05 K, 11512 kPa, x2 = 0.9715 | 638.9 ± 1.3
323.05 K, 11807 kPa, x2 = 0.9492 | 698.3 ± 1.2
323.05 K, 12028 kPa, x2 = 0.9715 | 660.4 ± 1.2
323.05 K, 12106 kPa, x2 = 0.9492 | 705.9 ± 1.1
323.05 K, 12404 kPa, x2 = 0.9492 | 712.6 ± 1.1
323.05 K, 12516 kPa, x2 = 0.9715 | 677 ± 1.1
323.05 K, 12703 kPa, x2 = 0.9492 | 719.2 ± 1.1
323.05 K, 13006 kPa, x2 = 0.9492 | 725.5 ± 1
323.05 K, 13014 kPa, x2 = 0.9715 | 691.5 ± 1
323.05 K, 13309 kPa, x2 = 0.9492 | 731.4 ± 1
323.05 K, 13558 kPa, x2 = 0.9715 | 705.3 ± 1
323.05 K, 13608 kPa, x2 = 0.9492 | 736.7 ± 1
323.05 K, 13907 kPa, x2 = 0.9492 | 742 ± 1
323.05 K, 14003 kPa, x2 = 0.9715 | 715.4 ± 1
323.05 K, 14210 kPa, x2 = 0.9492 | 746.8 ± 1
323.05 K, 14504 kPa, x2 = 0.9492 | 751.1 ± 0.9
323.05 K, 14516 kPa, x2 = 0.9715 | 725.9 ± 1
323.05 K, 14804 kPa, x2 = 0.9492 | 755.1 ± 0.9
323.05 K, 15024 kPa, x2 = 0.9715 | 735.4 ± 0.9
323.05 K, 15506 kPa, x2 = 0.9715 | 743.6 ± 0.8
323.06 K, 8724 kPa, x2 = 0.7943 | 745.3 ± 2
323.06 K, 8802 kPa, x2 = 0.7943 | 746.6 ± 1.8
323.06 K, 8905 kPa, x2 = 0.7943 | 747.9 ± 1.8
323.06 K, 9005 kPa, x2 = 0.7943 | 749.2 ± 0.9
323.06 K, 9204 kPa, x2 = 0.7943 | 751.6 ± 0.9
323.06 K, 9410 kPa, x2 = 0.7943 | 753.9 ± 0.8
323.06 K, 9606 kPa, x2 = 0.7943 | 756.2 ± 0.9
323.06 K, 9792 kPa, x2 = 0.7943 | 758.2 ± 0.9
323.06 K, 10001 kPa, x2 = 0.7943 | 760.2 ± 0.9
323.06 K, 10310 kPa, x2 = 0.7943 | 763.1 ± 0.9
323.07 K, 4004 kPa, x2 = 0.2003 | 775.4 ± 0.8
323.07 K, 4307 kPa, x2 = 0.2003 | 775.8 ± 0.8
323.07 K, 4497 kPa, x2 = 0.2003 | 776.1 ± 0.8
323.07 K, 4802 kPa, x2 = 0.2003 | 776.6 ± 0.8
323.07 K, 5014 kPa, x2 = 0.2003 | 776.9 ± 0.8
323.07 K, 5510 kPa, x2 = 0.2003 | 777.5 ± 0.8
323.07 K, 6029 kPa, x2 = 0.2003 | 778.3 ± 0.8
323.07 K, 6513 kPa, x2 = 0.2003 | 779 ± 0.8
323.07 K, 7000 kPa, x2 = 0.2003 | 779.7 ± 0.8
323.07 K, 7519 kPa, x2 = 0.2003 | 780.5 ± 0.8
323.07 K, 8013 kPa, x2 = 0.2003 | 781.1 ± 0.8
323.07 K, 8543 kPa, x2 = 0.2003 | 781.8 ± 0.8
323.07 K, 9139 kPa, x2 = 0.2003 | 782.5 ± 0.8
323.07 K, 9497 kPa, x2 = 0.2003 | 783 ± 0.8
323.07 K, 10068 kPa, x2 = 0.2003 | 783.8 ± 0.8
332.97 K, 9739 kPa, x2 = 0.7943 | 686.8 ± 0.8
332.97 K, 9804 kPa, x2 = 0.7943 | 689.2 ± 1.1
332.97 K, 9901 kPa, x2 = 0.7943 | 691.4 ± 1.2
332.97 K, 10001 kPa, x2 = 0.7943 | 693.5 ± 1.4
332.97 K, 10101 kPa, x2 = 0.7943 | 695.6 ± 1.6
332.97 K, 10201 kPa, x2 = 0.7943 | 697.8 ± 1.9
332.97 K, 10302 kPa, x2 = 0.7943 | 699.9 ± 2.1
332.97 K, 10404 kPa, x2 = 0.7943 | 701.7 ± 1
332.97 K, 10507 kPa, x2 = 0.7943 | 703.7 ± 1.5
332.97 K, 10606 kPa, x2 = 0.7943 | 705.4 ± 1.8
332.97 K, 10808 kPa, x2 = 0.7943 | 708.9 ± 1.3
332.97 K, 11007 kPa, x2 = 0.7943 | 712 ± 1
332.97 K, 11204 kPa, x2 = 0.7943 | 715 ± 0.9
332.97 K, 11404 kPa, x2 = 0.7943 | 717.8 ± 0.9
332.97 K, 11607 kPa, x2 = 0.7943 | 720.5 ± 0.9
332.97 K, 11805 kPa, x2 = 0.7943 | 722.9 ± 0.9
332.97 K, 12004 kPa, x2 = 0.7943 | 725.3 ± 0.8
332.99 K, 2861 kPa, x2 = 0.139 | 759.8 ± 0.8
332.99 K, 3000 kPa, x2 = 0.139 | 760 ± 0.8
332.99 K, 3297 kPa, x2 = 0.139 | 760.4 ± 0.8
332.99 K, 3495 kPa, x2 = 0.139 | 760.7 ± 0.8
332.99 K, 4008 kPa, x2 = 0.139 | 761.5 ± 0.8
332.99 K, 4509 kPa, x2 = 0.139 | 762.2 ± 0.8
332.99 K, 5030 kPa, x2 = 0.139 | 762.8 ± 0.8
332.99 K, 6502 kPa, x2 = 0.139 | 764.9 ± 0.8
332.99 K, 7005 kPa, x2 = 0.139 | 765.6 ± 0.8
332.99 K, 7501 kPa, x2 = 0.139 | 766.3 ± 0.8
332.99 K, 8010 kPa, x2 = 0.139 | 766.9 ± 0.8
332.99 K, 8521 kPa, x2 = 0.139 | 767.6 ± 0.8
332.99 K, 9040 kPa, x2 = 0.139 | 768.3 ± 0.8
332.99 K, 9511 kPa, x2 = 0.139 | 768.8 ± 0.8
332.99 K, 9974 kPa, x2 = 0.139 | 769.5 ± 0.8
332.99 K, 10561 kPa, x2 = 0.9492 | 502.4 ± 1.2
332.99 K, 10601 kPa, x2 = 0.9492 | 506.6 ± 1.2
332.99 K, 10709 kPa, x2 = 0.9492 | 517.4 ± 1.1
332.99 K, 10810 kPa, x2 = 0.9492 | 526.9 ± 1
332.99 K, 10910 kPa, x2 = 0.9492 | 536.2 ± 1
332.99 K, 11209 kPa, x2 = 0.9492 | 560.9 ± 1
332.99 K, 11503 kPa, x2 = 0.9492 | 580 ± 1
332.99 K, 11803 kPa, x2 = 0.9492 | 596 ± 0.9
332.99 K, 12102 kPa, x2 = 0.9492 | 611.4 ± 0.9
332.99 K, 12404 kPa, x2 = 0.9492 | 624.7 ± 0.9
332.99 K, 12705 kPa, x2 = 0.9492 | 635.9 ± 0.9
332.99 K, 13010 kPa, x2 = 0.9492 | 645.6 ± 0.9
332.99 K, 13302 kPa, x2 = 0.9492 | 654.5 ± 0.9
332.99 K, 13603 kPa, x2 = 0.9492 | 663.6 ± 0.9
332.99 K, 13906 kPa, x2 = 0.9492 | 671.7 ± 0.9
332.99 K, 14213 kPa, x2 = 0.9492 | 678.9 ± 0.9
332.99 K, 14513 kPa, x2 = 0.9492 | 684.7 ± 0.8
333.02 K, 7301 kPa, x2 = 0.4248 | 770.1 ± 0.8
333.02 K, 7408 kPa, x2 = 0.4248 | 770.5 ± 0.8
333.02 K, 7506 kPa, x2 = 0.4248 | 770.6 ± 0.8
333.02 K, 7613 kPa, x2 = 0.4248 | 771 ± 0.8
333.02 K, 7806 kPa, x2 = 0.4248 | 771.4 ± 0.8
333.02 K, 8005 kPa, x2 = 0.4248 | 772 ± 0.8
333.02 K, 8209 kPa, x2 = 0.4248 | 772.6 ± 0.8
333.02 K, 8226 kPa, x2 = 0.6086 | 753.6 ± 0.8
